Data set [1] concerns Rattus norvegicus. Nature of the data set: Anti-inflammatory activity in Rattus norvegicus Wistar albino (rat) assessed as inhibition of carrageenan-induced paw edema at 20 mg/kg, po administered 30 min before carrageenan challenge measured after 1 hr relative to control. Format: functional. (In the carrageenan paw model, swelling and tenderness develop within hours.)
The subject of data set [2] is Rattus norvegicus. Nature of the data set: Anti-inflammatory activity in Rattus norvegicus Wistar albino (rat) assessed as inhibition of carrageenan-induced paw edema at 20 mg/kg, po administered 30 min before carrageenan challenge measured after 0.5 hr relative to control. Format: functional.
Data set [3] concerns Mus musculus. Nature of the data set: Analgesic activity in po dosed Mus musculus Swiss albino (mouse) assessed as increase in reaction time after 0.5 hr by tail-flick method relative to control. Format: functional. (In hot-plate and tail-flick tests a longer latency is read as antinociception.)
For data set [4], the system named is Rattus norvegicus. Put plainly: Anti-inflammatory activity in Rattus norvegicus Wistar albino (rat) assessed as inhibition of carrageenan-induced paw edema at 20 mg/kg, po administered 30 min before carrageenan challenge measured after 2 hr relative to control. Format: functional.
The subject of data set [5] is Rattus norvegicus. Put plainly: Anti-inflammatory activity in Rattus norvegicus Wistar albino (rat) assessed as inhibition of carrageenan-induced paw edema at 20 mg/kg, po administered 30 min before carrageenan challenge measured after 1.5 hr relative to control. Format: functional.
The test system of data set [6] is Rattus norvegicus. Nature of the data set: Anti-inflammatory activity in Rattus norvegicus Wistar albino (rat) assessed as inhibition of carrageenan-induced paw edema at 20 mg/kg, po administered 30 min before carrageenan challenge measured after 3 hr relative to control. Format: functional.
Data set [7] has as its system Mus musculus. Nature of the data set: Analgesic activity in po dosed Mus musculus Swiss albino (mouse) assessed as increase in reaction time after 1 hr by tail-flick method relative to control. Format: functional.
The test system of data set [8] is Rattus norvegicus. Nature of the data set: Anti-inflammatory activity in Rattus norvegicus Wistar albino (rat) assessed as inhibition of carrageenan-induced paw edema at 20 mg/kg, po administered 30 min before carrageenan challenge measured after 2.5 hr relative to control. Format: functional.
For data set [9], the system named is Mus musculus. Put plainly: Analgesic activity in po dosed Mus musculus Swiss albino (mouse) assessed as increase in reaction time after 1.5 hr by tail-flick method relative to control. Format: functional.
The subject of data set [10] is Radical scavenging activity. Put plainly: Antioxidant activity assessed as DPPH free radical scavenging activity at 100 ug/ml after 30 min. Format: functional. Background: The DPPH test is a chemical assay of radical scavenging.
The test system of data set [11] is Mus musculus. Put plainly: Analgesic activity in Mus musculus Swiss albino (mouse) assessed as increase in reaction time at 10 mg/kg, po after 1.5 hr by tail-flick method relative to control. Format: functional.
In data set [12] the test system is Mus musculus. Put plainly: Analgesic activity in Mus musculus Swiss albino (mouse) assessed as increase in reaction time at 10 mg/kg, po after 0.5 hr by tail-flick method relative to control. Format: functional.
For data set [13], the system named is Mus musculus. Put plainly: Analgesic activity in Mus musculus Swiss albino (mouse) assessed as increase in reaction time at 10 mg/kg, po after 1 hr by tail-flick method relative to control. Format: functional.
Data set [14] in a line: Antioxidant activity assessed as superoxide radical scavenging activity at 40 ug/ml after 5 min by NBT reduction assay. Format: functional.
Data set [15] is described as follows: Antioxidant activity assessed as superoxide radical scavenging activity at 80 ug/ml after 5 min by NBT reduction assay. Format: functional.
Data set [16] is described as follows: Antioxidant activity assessed as nitric oxide radical scavenging activity at 40 ug/ml after 150 min by Griess Illosvoy reaction. Format: functional.
The subject of data set [17] is Escherichia coli. Put plainly: Antibacterial activity against Escherichia coli by well diffusion method. Format: functional, organism-based.
A short description of data set [18]: Antioxidant activity assessed as nitric oxide radical scavenging activity at 100 ug/ml after 150 min by Griess Illosvoy reaction. Format: functional.
Data set [19] has as its system Rattus norvegicus. Put plainly: Ulcerogenic activity in Rattus norvegicus Wistar albino (rat) assessed as ulcer index at equimolar dose of relative to 200 mg/kg of ibuprofen, po after 17 hr. Format: toxicity, organism-based. More on the design: dose 200 mg/kg, route oral. The following applies: in vivo.
Data set [20] in a line: Antioxidant activity assessed as superoxide radical scavenging activity at 100 ug/ml after 5 min by NBT reduction assay. Format: functional.
Data set [21] can be described thus: Antioxidant activity assessed as superoxide radical scavenging activity at 20 ug/ml after 5 min by NBT reduction assay. Format: functional.
Data set [22] is described as follows: Antioxidant activity assessed as hydroxyl radical scavenging activity at 40 ug/ml after 4 hr. Format: functional.
Data set [23] can be described thus: Antioxidant activity assessed as hydroxyl radical scavenging activity at 80 ug/ml after 4 hr. Format: functional.
The nature of data set [24]: Antioxidant activity assessed as nitric oxide radical scavenging activity at 80 ug/ml after 150 min by Griess Illosvoy reaction. Format: functional.
Data set [25] can be described thus: Antioxidant activity assessed as superoxide radical scavenging activity at 60 ug/ml after 5 min by NBT reduction assay. Format: functional.
Data set [26] in a line: Antioxidant activity assessed as hydroxyl radical scavenging activity at 20 ug/ml after 4 hr. Format: functional.
The nature of data set [27]: Antioxidant activity assessed as nitric oxide radical scavenging activity at 20 ug/ml after 150 min by Griess Illosvoy reaction. Format: functional.
Data set [28] can be described thus: Antioxidant activity assessed as hydroxyl radical scavenging activity at 60 ug/ml after 4 hr. Format: functional.
Data set [29] is described as follows: Antioxidant activity assessed as hydroxyl radical scavenging activity at 100 ug/ml after 4 hr. Format: functional.
Data set [30] is described as follows: Antioxidant activity assessed as nitric oxide radical scavenging activity at 60 ug/ml after 150 min by Griess Illosvoy reaction. Format: functional.
In data set [31] the test system is Aspergillus. Nature of the data set: Antifungal activity against Aspergillus by well diffusion method. Format: functional, organism-based.
Data set [32] has as its system Staphylococcus aureus. Nature of the data set: Antibacterial activity against Staphylococcus aureus by well diffusion method. Format: functional, organism-based.
The test system of data set [33] is Rattus norvegicus. Put plainly: Ulcerogenic activity in Rattus norvegicus Wistar albino (rat) assessed as ulcer index at 200 mg/kg, po after 17 hr. More on the design: dose 200 mg/kg, route oral. The settings on record: in vivo. Format: toxicity, organism-based.

The source of these data is ChEMBL document CHEMBL3044588, “Microwave-mediated synthesis of triazolothiadiazoles as anti-inflammatory, analgesic, and anti-oxidant agents” (Med Chem Res, 2012).

By inhibition in vivo is commonly meant the drop in the measured response relative to a control, in per cent. As a reminder, the inhibition is how much of the control response was suppressed.

Activity calls are given as the source filed them. The rule behind the calls is not given here.

For the molecule `CCc1nn2c(C(C)c3ccc(CC(C)C)cc3)nnc2s1` (stereo not drawn), the inhibition in vivo at 20 mg/kg in [1] is 22%; in [2], 5%; in [4], 45%; in [5], 49%; in data set [6] it was 55%; in [8] it was 44%. The values for the Activity in data set [3], in data set [7] and in data set [9] were 7.18%, 16.33% and 30.06%, respectively. Besides, the inhibition in [10] came to 5.61%.
With `CC(C)Cc1ccc(C(C)c2nnc3sc(-c4ccc([N+](=O)[O-])cc4Cl)nn23)cc1` (stereo not drawn), the inhibition in vivo at 20 mg/kg in data set [1] stood at 4%; in [4] it was 67%; in data set [5], 59%; in data set [6], 69%; in data set [8], 67%. Moreover, the Activity in [3] came out at 17.34%; in data set [7], 31.79%; in [9], 41.61%. In data set [10], the inhibition came out at 1.71%.
For `CC(C)=CCN1CC[C@@]2(C)c3cc(O)ccc3C[C@@H]1[C@@H]2C` (racemic), the Activity in data set [11] worked out at 77.34%; in [12], 20.44%; in data set [13], 40.33%.
For the molecule `CCCc1nn2c(C(C)c3ccc(CC(C)C)cc3)nnc2s1` (stereo not drawn), the inhibition in vivo at 20 mg/kg in [1] is 15%; in data set [2] it was 10%; in [4], 28%; in data set [5], 24%; in data set [6] it was 34%; in data set [8], 31%. Also, the inhibition in data set [14] was determined as 36.4%; in [15], 53%; in [16], 26.7%; in [18], 52.6%; in data set [20], 58.6%; in data set [21], 24.5%. Moreover, the inhibition came out at 38.7% in data set [22]; 56.4% in [23]; 46.7% in [24]; 42.4% in [25]; 26.1% in data set [26]; 14.3% in data set [27]. Moreover, the inhibition in data set [28] came out at 44.2%; in data set [29], 62.4%; in data set [10] it was 77.9%; in data set [30], 38.3%. Also, the outcome in data set [17], in data set [31] and in data set [32] was inactive. Further, in [19], the UI stood at 8.54.
With `Cc1nn2c(C(C)c3ccc(CC(C)C)cc3)nnc2s1` (stereo not drawn), the inhibition in vivo at 20 mg/kg turned out to be 43% in data set [1]; 64% in data set [2]; 58% in data set [4]; 62% in data set [5]; 62% in data set [6]; 56% in [8]. Besides, the Activity turned out to be 26.66% in data set [3], 32% in data set [7] and 42.66% in [9]. Further, the inhibition in [10] amounted to 7.9%.
Consider `O=C(O)Cc1ccccc1Nc1c(Cl)cccc1Cl` [DICLOFENAC], for which the inhibition in vivo at 20 mg/kg in [1] stood at 65%; in data set [2], 82%; in [4], 76%; in data set [5] it was 80%; in [6], 75%; in data set [8] it was 73%.
For the molecule `CC(C)Cc1ccc(C(C)c2nnc3sc(-c4ccccc4Cl)nn23)cc1` (stereo not drawn), the inhibition in vivo at 20 mg/kg amounted to 43% in data set [1]; 64% in [2]; 59% in data set [4]; 57% in data set [5]; 59% in data set [6]; 58% in data set [8]. Further, the Activity in data set [3] worked out at 19.23%; in [7], 39.74%; in data set [9] it was 78.2%. In addition, the inhibition in [10] was 4.46%.
For `CC(C)Cc1ccc(C(C)C(=O)O)cc1` (stereo not drawn) [IBUPROFEN], the Activity in data set [11] is reported as 30.04%; in [12], 11.73%; in [13], 22.53%. Besides, the inhibition in vivo at 20 mg/kg was found to be 18% in data set [1]; 20% in data set [2]; 36% in data set [4]; 25% in data set [5]; 42% in data set [6]; 39% in data set [8]. Also, the UI in [33] worked out at 29.37.
`Cc1cc(C(C)(C)C)c(O)c(C(C)(C)C)c1`: the inhibition in data set [18] came to 62.2%; in data set [20], 72.5%; in data set [29], 68.3%; in data set [10] it was 84.8%.
